Experiments:
[1] = Heart phospholipid fatty acid composition of pigs fed SDA; format: in vivo; settings: for Average heart DHA level, percent of total fatty acids / Average heart EPA level, percent of total fatty acids / Average heart SDA level, percent of total fatty acids: 35 days
Procedure: (§1) After completion of the feeding phase, animals were slaughtered and tissues were collected for evaluation. A sample of brain was obtained by making a cup from the occipital condyle at the base of the skull to the back of the eye. A portion of the brain from the cerebral cortex, and some of the mid brain was collected. About 1 g of frozen heart or brain tissue was pulverized in a stainless steel mortar and pestle maintained at −70° C. It was then suspended in 2 mL of ice-cold saline and sonicated on ice to thoroughly disperse the tissue. The lipids were extracted with methylene chloride:methanol. The PL fractions were isolated by thin layer chromatography and methylated for 10 minutes in BF3-methanol at 100° C. After extraction of the fatty acid methyl esters (FAME) with hexane:water, their composition was analyzed in a GC2010 (Shimadzu Scientific Instruments, Columbia, Md.) using a fused silica capillary columns (SP-2560, 100 m length, 0.25 mm internal diameter, 0.25 um film thickness, Supelco, Bellefonte, Pa.). A weighed external standard fatty acid (FA) mixture (GLC727, NuCheck Prep, Elysian, Minn.) was included to correct for potential differences in FA response factors. The response factor for palmitic acid of is assumed to be 1.0. Results were expressed as a percent of total identified FA (for composition endpoints) and as mg FA/g tissue.

[2] = Brain phospholipid fatty acid composition of pigs fed SDA; format: in vivo; settings: for Brain phospholipid DHA, percent of total fatty acids / Brain phospholipid EPA, percent of total fatty acids / Brain phospholipid SDA, percent of total fatty acids: 35 days
Procedure: as §1, with “In addition to measuring long-chain fatty acid incorporation into tissues, additional research was undertaken to understand the alterations in fatty acid concentration in the brain and heart tissues. In particular, DHA is known to be a significant fraction of brain composition. As such, the following experiments were conducted with brain matter extracted from the pigs used in the study above. After completion” for “After completion”

[3] = Brain outer cortex lipid fatty acid analysis, control vs 0.8% SDA; format: in vivo, pigs
Procedure: About 1 g of frozen heart or brain tissue was pulverized in a stainless steel mortar and pestle maintained at −70° C. It was then suspended in 2 mL of ice-cold saline and sonicated on ice to thoroughly disperse the tissue. The lipids were extracted with methylene chloride:methanol. […] After extraction of the fatty acid methyl esters (FAME) with hexane:water, their composition was analyzed in a GC2010 (Shimadzu Scientific Instruments, Columbia, Md.) using a fused silica capillary columns (SP-2560, 100 m length, 0.25 mm internal diameter, 0.25 um film thickness, Supelco, Bellefonte, Pa.). A weighed external standard fatty acid (FA) mixture (GLC727, NuCheck Prep, Elysian, Minn.) was included to correct for potential differences in FA response factors. The response factor for palmitic acid of is assumed to be 1.0. Results were expressed as a percent of total identified FA (for composition endpoints) and as mg FA/g tissue. To further explore the effect of SDA on brain tissue composition, samples from the four control and four high dose (Treatment 5) animals were shaved to isolate the outer cortex. This was done to test the hypothesis that white, myelinated tissue found in the mid brain may not accumulate DHA as readily as gray matter in the cerebral cortex.

[4] = cited from earlier work
[5] = prior studies; cited from earlier work
[6] = 0.8% SDA (Treatment 5), average

With `CC/C=C\C/C=C\C/C=C\C/C=C\CCCCC(=O)O` [SDA, stearidonic acid] the “Average heart DHA level, percent of total fatty acids” value (from here on “Average heart DHA level, percent”) ([1]; SDA 0.2%) was 0.49%, the “Average heart EPA level, percent of total fatty acids” value (“Average heart EPA level, percent” for short) ([1]; SDA 0.2%) was 1.82% and the “Average heart SDA level, percent of total fatty acids” value (“Average heart SDA level, percent” for short) ([1]; SDA 0.2%) was 0.05%. For the same compound, the “Average heart DHA level, percent” value ([1]; SDA 0.4%) was 0.42%, the “Average heart EPA level, percent” value ([1]; SDA 0.4%) was 3.86% and the “Average heart SDA level, percent” value ([1]; SDA 0.4%) was 0.13%. The “Average heart DHA level, percent” value ([1]; SDA 0.6%) was 0.57%, the “Average heart EPA level, percent” value ([1]; SDA 0.6%) was 4.83% and the “Average heart SDA level, percent” value ([1]; SDA 0.6%) was 0.19%. The “Average heart DHA level, percent” value ([1]; SDA 0.8%) was 0.62%, the “Average heart EPA level, percent” value ([1]; SDA 0.8%) was 6.71% and the “Average heart SDA level, percent” value ([1]; SDA 0.8%) was 0.36%. The “Dose response for deposition of SDA, EPA and DHA in heart phospholipids” value ([1]; regression analysis on the mean response at each dose level) was “statistically significant (p<0.05)”, the “Brain phospholipid DHA, percent of total fatty acids” value (“Brain phospholipid DHA, percent” for short) ([2]; SDA 0.2%) was 10.07% and the “Brain phospholipid EPA, percent of total fatty acids” value (“Brain phospholipid EPA, percent” below) ([2]; SDA 0.2%) was 0.02%. For the same compound, the “Brain phospholipid SDA, percent of total fatty acids” value (shortened to “Brain phospholipid SDA, percent”) ([2]; SDA 0.2%) was 0.01%, the “Brain phospholipid DHA, percent” value ([2]; SDA 0.4%) was 9.15% and the “Brain phospholipid EPA, percent” value ([2]; SDA 0.4%) was 0.04%. For the same compound, the “Brain phospholipid SDA, percent” value ([2]; SDA 0.4%) was 0.01%, the “Brain phospholipid DHA, percent” value ([2]; SDA 0.6%) was 10.99% and the “Brain phospholipid EPA, percent” value ([2]; SDA 0.6%) was 0.06%. For the same compound, the “Brain phospholipid SDA, percent” value ([2]; SDA 0.6%) was 0.01%, the “Brain phospholipid DHA, percent” value ([2]; SDA 0.8%) was 11.21% and the “Brain phospholipid EPA, percent” value ([2]; SDA 0.8%) was 0.06%. The “Brain phospholipid SDA, percent” value ([2]; SDA 0.8%) was 0.01%, the “Deposition of EPA and DHA in the brain” value ([2]; SDA feeding) was “dose response deposition of EPA and DHA in the brain” and the “C14:0, brain outer cortex” value [3, 6] was 0.50%. The “C16:0, brain outer cortex” value [3, 6] was 24.20%, the “C16:1n7, brain outer cortex” value [3, 6] was 1.05% and the “C16:1n7t, brain outer cortex” value [3, 6] was 0.28%. For the same compound, the “C18:0, brain outer cortex” value [3, 6] was 16.53%, the “C18:1n9, brain outer cortex” value [3, 6] was 19.14% and the “C18:1t, brain outer cortex” value [3, 6] was 0.08%. The “C18:2n6, brain outer cortex” value [3, 6] was 0.63%, the “C18:2n6t, brain outer cortex” value [3, 6] was 0.23% and the “C18:3n3, brain outer cortex” value [3, 6] was 0.15%. The “C18:3n6, brain outer cortex” value [3, 6] was 0.02%, the “C18:4n3, brain outer cortex” value [3, 6] was 0.02% and the “C20:1n9, brain outer cortex” value [3, 6] was 0.23%. For the same compound, the “C20:2n6, brain outer cortex” value [3, 6] was 0.06%, the “C20:3n6, brain outer cortex” value [3, 6] was 0.35% and the “C20:4n6, brain outer cortex” value [3, 6] was 11.48%. For the same compound, the “C20:5n3, brain outer cortex” value [3, 6] was 0.15%, the “C22:4, brain outer cortex” value [3, 6] was 2.90% and the “C22:5n3, brain outer cortex” value [3, 6] was 0.98%. For the same compound, the “C22:5n6, brain outer cortex” value [3, 6] was 3.58%, the “C22:6n3, brain outer cortex” value [3, 6] was 17.38% and the “C24:0, brain outer cortex” value [3, 6] was 0.02%. The “C24:1n9, brain outer cortex” value [3, 6] was 0.05%, the “OMX-3 (Omega 3 Index, sum of EPA and DHA), brain outer cortex” value [3, 6] was 17.53% and the “DHA and EPA in total lipid extract of the outer cortex region” value ([3]; Treatment 5 vs control) was “increase in DHA and EPA”. For the same compound, the “Amount of SDA relative to EPA needed to enrich blood tissues with an equivalent amount of EPA” value [4] was 3 times and the “DHA concentrations in blood or tissues after feeding SDA” value [5] was “failed to find evidence of increased DHA concentrations”.

From patent publication US20090197955A1, “METHODS OF IMPROVING DHA DEPOSITION AND RELATED FUNCTION AND/OR DEVELOPMENT” (Monsanto Company, priority 2008, published 2009)
